In patent US9957428B2 (priority 2013, dated 2018):
Where two headings read alike, the source gives them in different places.

How the values were obtained:
[1] = assay type: physicochemical
[2] = assay type: physicochemical; remark: listed apart in the source

Row | SMILES | Cp ([1]; Temperature 15 ° C.) | Cp ([1]; Temperature 20 ° C.) | Cp ([1]; Temperature 25 ° C.) | Cp ([1]; Temperature 30 ° C.) | Cp ([1]; Temperature 35 ° C.) | Cp ([1]; Temperature 40 ° C.) | Vapor Pressure at 68° F.(20° C.) [mm Hg] | Kinematic Viscosity ([2]; Temp 0.0 °C) [cS] | Kinematic Viscosity ([2]; Temp 25.0 °C) [cS] | Kinematic Viscosity ([2]; Temp 30.0 °C) [cS] | Kinematic Viscosity ([2]; Temp 40.0 °C) [cS] | Kinematic Viscosity ([2]; Temp 50.0 °C) [cS] | Kinematic Viscosity ([2]; Temp 60.0 °C) [cS]
1 | CCOC(F)(C(F)(F)C(F)(F)C(F)(F)F)C(F)(C(F)(F)F)C(F)(F)F (stereo not shown) [Novec 7500] | 1.08 J/(g · ° C.) | 1.09 J/(g · ° C.) | 1.10 J/(g · ° C.) | 1.11 J/(g · ° C.) | 1.12 J/(g · ° C.) | 1.13 J/(g · ° C.) | – | – | – | – | – | – | –
2 | FC(=C(F)C(F)(F)F)N(C(F)(F)F)C(F)(F)F [Preparatory Example 1, 1,2,3,3,3-pentafluoro-N,N-bis(trifluoromethyl)prop-1-en-1-amine] | 1.25 J/(g · ° C.) | 1.27 J/(g · ° C.) | 1.28 J/(g · ° C.) | 1.30 J/(g · ° C.) | 1.32 J/(g · ° C.) | 1.34 J/(g · ° C.) | 50.9 | 0.91 | 0.58 | 0.54 | 0.48 | 0.42 | 0.38
3 | F/C(=C(/F)C(F)(F)F)N1C(F)(F)C(F)(F)OC(F)(F)C1(F)F [Preparatory Example 2, 2,2,3,3,5,5,6,6-octafluoro-4-(1,2,3,3,3-pentafluoroprop-1-enyl)morpholine] | 1.09 J/(g · ° C.) | 1.10 J/(g · ° C.) | 1.11 J/(g · ° C.) | 1.12 J/(g · ° C.) | 1.13 J/(g · ° C.) | 1.14 J/(g · ° C.) | – | – | – | – | – | – | –
4 | FC(=C(F)C(F)(F)F)N(C(F)(F)F)C(F)(F)C(F)(F)F [Preparatory Example 5, 1,2,3,3,3-pentafluoro-N-(1,1,2,2,2-pentafluoroethyl)-N-(trifluoromethyl)prop-1-en-1-amine] | 1.18 J/(g · ° C.) | 1.20 J/(g · ° C.) | 1.21 J/(g · ° C.) | 1.22 J/(g · ° C.) | 1.23 J/(g · ° C.) | 1.24 J/(g · ° C.) | – | – | – | – | – | – | –
